Measured values taken from patent US20220389477A1, “METHOD FOR EVALUATING ANTIBIOTIC SUSCEPTIBILITY” (Vrije Universiteit Brussel, priority 2019, published 2022).
Values after ≈ are worked out from the molar mass of the structure shown.

What was measured:
Format in all cases: cell-based
[1] = system: Klebsiella pneumonia culture; test: Optical third-derivative MIC method, culture in broth; conditions: for MIC: Klebsiella pneumoniae
Description: (§1) The method of FIG. 1 starts at a time equal to zero, t0 (1). Preferably, said t0 is the moment a pure bacteria culture is finished being prepared. Alternatively, said t0 is the moment all wells contain both said bacteria culture and said antimicrobial drug. After the starting of the experiment each well is periodically illuminated with a light source and the intensity of the transmitted light is detected with a photodetector (2). Preferably, each well is illuminated and the intensity of the transmitted light is detected every hour (2). More preferably, each well is illuminated and the intensity of the transmitted light is detected every 5 to 15 min. After a predetermined time length, preferably after 4 hours, a first, a second and a third derivative of said measured intensity is calculated (3) in a first and a second time frame for each well. Preferably, said second time frame is the last measured time frame after the test has been running for said predetermined time length, and said first time frame is the time frame preceding the second time frame. More preferably, said first time frame is between two and three hours and said second time frame is between three and four hours. After the calculation of said derivatives, said first derivative in said second time frame of said reference well is compared to a growth speed threshold value (4). Preferably, said growth speed threshold value is 0.166 (4). If said first derivative in said second time frame of said reference well is larger than or equal to said growth speed threshold value said bacteria culture is classified as Type I (4). If said first derivative in said second time frame of said reference well is smaller than said growth speed threshold value said bacteria culture is classified as Type II (4). Subsequently, independent of the classification of the bacteria culture according to the two types, the method comprises the following steps which are performed for each well or for all wells except said reference well. Both said first and said second time frames are evaluated to see if there is an inflection point present in the second derivative in said first and/or said second time frame (5).
(§2) If said first and/or said second time frame comprise said inflection point than said third derivative in said first time frame is compared to said third derivative in said second time frame (6). If said third derivative in said first time frame is larger than said third derivative in said second time frame, then said first time frame and said second time frame are selected as a first and second time frame to be used in a minimal inhibitory concentration determination method (10). If said third derivative in said first time frame is not larger than said third derivative in said second time frame, then said well is illuminated again after a certain time period, preferably an hour, more preferably 5 to 15 min after said predetermined time length said, with a light source and the intensity of the transmitted light is detected with a photodetector forming a new time frame subsequent to said second time frame (7). A third derivative, and possibly also a first and/or a second derivative, is calculated in said new time frame (7). Further, in step (7) a new first time frame is put equal to said second time frame and a new second time frame to equal to said new time frame. Subsequently, said third derivative in said new first time frame is compared to said third derivative in said new second time frame (8). If said derivative in said new first time frame is larger than said third derivative in said new second time frame, then said new first time frame and said new second time frame are selected as a first and second time frame to be used in a minimal inhibitory concentration determination method (10). […]

[2] = system: Acinetobacter Species; test: as above; conditions: AC/2990; for MIC: Acinetobacter
Description: as §1, §2

[3] = system: Klebsiella pneumonia culture; test: E-test; conditions: Klebsiella pneumoniae
[4] = system: Acinetobacter Species; test: E-test; conditions: culture AC/2990
[5] = system: Acinetobacter Species; test: Broth microdilution (BMD); conditions: culture AC/2990
[6] = system: Klebsiella pneumonia culture; test: Broth microdilution (BMD); conditions: Klebsiella pneumoniae

Structure (SMILES): C[C@@H](O)[C@H]1C(=O)N2C(C(=O)O)=C(SCCN=CN)C[C@H]12 [imipenem]
- MIC ([1]; KP/38.3002, FIG. 5H repetition, Table 10, 3 h-4 h, read-out: MIC (40%) T1): 0.5 µg/mL (≈ 1.67 µM)
- MIC ([1]; KP/38.3002, FIG. 5H repetition, Table 10, 3 h-4 h, read-out: MIC (60%) T1): 0.5 µg/mL (≈ 1.67 µM)
- MIC ([1]; KP/38.3002, FIG. 5H repetition, Table 10, 3 h-4 h, read-out: MIC (75%) T1): 0.5 µg/mL (≈ 1.67 µM)
- MIC ([1]; KP/38.3002, FIG. 5H repetition, Table 10, 4 h-5 h, read-out: MIC (25%) T2): 16 µg/mL (≈ 53.4 µM)
- MIC ([1]; KP/38.3002, FIG. 5H repetition, Table 10, 4 h-5 h, read-out: MIC (40%) T2): 16 µg/mL (≈ 53.4 µM)
- MIC ([1]; KP/38.3002, FIG. 5H repetition, Table 10, 4 h-5 h, read-out: MIC (60%) T2): 16 µg/mL (≈ 53.4 µM)
- MIC ([1]; KP/38.3002, FIG. 5H repetition, Table 10, 4 h-5 h, read-out: MIC (75%) T2): 8 µg/mL (≈ 26.7 µM)
- MIC ([1]; KP/38.3002, FIG. 5H repetition, Table 11, 3 h-4 h, read-out: MIC (25%) T1): 16 µg/mL (≈ 53.4 µM)
- MIC ([1]; KP/38.3002, FIG. 5H repetition, Table 11, 3 h-4 h, read-out: MIC (40%) T1): 0.25 µg/mL (≈ 0.835 µM)
- MIC ([1]; KP/38.3002, FIG. 5H repetition, Table 11, 3 h-4 h, read-out: MIC (60%) T1): 0.25 µg/mL (≈ 0.835 µM)
- MIC ([1]; KP/38.3002, FIG. 5H repetition, Table 11, 3 h-4 h, read-out: MIC (75%) T1): 0.25 µg/mL (≈ 0.835 µM)
- MIC ([1]; KP/38.3002, FIG. 5H repetition, Table 11, 4 h-5 h, read-out: MIC (25%) T2): 16 µg/mL (≈ 53.4 µM)
- MIC ([1]; KP/38.3002, FIG. 5H repetition, Table 11, 4 h-5 h, read-out: MIC (40%) T2): 8 µg/mL (≈ 26.7 µM)
- MIC ([1]; KP/38.3002, FIG. 5H repetition, Table 11, 4 h-5 h, read-out: MIC (60%) T2): 8 µg/mL (≈ 26.7 µM)
- MIC ([1]; KP/38.3002, FIG. 5H repetition, Table 11, 4 h-5 h, read-out: MIC (75%) T2): 8 µg/mL (≈ 26.7 µM)
- MIC ([1]; KP/153.4346, FIG. 5G, overall conclusion, read-out: MIC value determined by the method): > 256 µg/mL
- MIC ([1]; MP/072.3489, FIG. 5B, overall conclusion, read-out: MIC value determined by the method): 16 µg/mL (≈ 53.4 µM)
- HR? at MIC (25%) ([1]; MP/072.3489, ratio MIC T2/T1): yes (If the ratio of the MIC value in the second time frame over the MIC value in the first time frame is higher than or equal to 8 then the ratio is labelled to be heteroresistant)
- HR? at MIC (40%) ([1]; MP/072.3489, ratio MIC T2/T1): yes (If the ratio of the MIC value in the second time frame over the MIC value in the first time frame is higher than or equal to 8 then the ratio is labelled to be heteroresistant)
- HR? at MIC (60%) ([1]; MP/072.3489, ratio MIC T2/T1): yes (If the ratio of the MIC value in the second time frame over the MIC value in the first time frame is higher than or equal to 8 then the ratio is labelled to be heteroresistant)
- HR? at MIC (75%) ([1]; MP/072.3489, ratio MIC T2/T1): yes (If the ratio of the MIC value in the second time frame over the MIC value in the first time frame is higher than or equal to 8 then the ratio is labelled to be heteroresistant)
- HR? at MIC (40%) ([2]; ratio MIC T2/T1): no (If the ratio of the MIC value in the second time frame over the MIC value in the first time frame is lower than or equal to 4 then the ratio is labelled not to be heteroresistant)
- HR? at MIC (60%) ([2]; ratio MIC T2/T1): no (If the ratio of the MIC value in the second time frame over the MIC value in the first time frame is lower than or equal to 4 then the ratio is labelled not to be heteroresistant)
- HR? at MIC (75%) ([2]; ratio MIC T2/T1): no (If the ratio of the MIC value in the second time frame over the MIC value in the first time frame is lower than or equal to 4 then the ratio is labelled not to be heteroresistant)
- HR? at MIC (25%) ([2]; ratio MIC T2/T1, omitted (Type II)): yes (If the ratio of the MIC value in the second time frame over the MIC value in the first time frame is higher than or equal to 8 then the ratio is labelled to be heteroresistant)
- MIC ([2]; 2 h-3 h, omitted from determination (Type II), read-out: MIC (25%) T1): 0.25 µg/mL (≈ 0.835 µM)
- MIC ([2]; 2 h-3 h, read-out: MIC (40%) T1): 0.25 µg/mL (≈ 0.835 µM)
- MIC ([2]; 2 h-3 h, read-out: MIC (60%) T1): < 0.125 µg/mL
- MIC ([2]; 2 h-3 h, read-out: MIC (75%) T1): < 0.125 µg/mL
- MIC ([2]; 3 h-4 h, omitted from determination (Type II), read-out: MIC (25%) T2): 128 µg/mL (≈ 428 µM)
- MIC ([2]; 3 h-4 h, read-out: MIC (40%) T2): 0.25 µg/mL (≈ 0.835 µM)
- MIC ([2]; 3 h-4 h, read-out: MIC (60%) T2): < 0.125 µg/mL
- MIC ([2]; 3 h-4 h, read-out: MIC (75%) T2): < 0.125 µg/mL
- MIC ([2]; FIG. 5A, overall conclusion, read-out: MIC value determined by the method): 0.25 µg/mL (≈ 0.835 µM)
- MIC ([3]; culture KP/38.3002): 16 µg/mL (≈ 53.4 µM)
- MIC ([3]; culture KP/153.4346): > 32 µg/mL
- MIC ([3]; culture MP/072.3489): 16 µg/mL (≈ 53.4 µM)
- MIC [4]: 0.25 µg/mL (≈ 0.835 µM)
- MIC [5]: 0.25 µg/mL (≈ 0.835 µM)
- MIC ([6]; culture KP/38.3002): 16 µg/mL (≈ 53.4 µM)
- MIC ([6]; culture KP/153.4346): 16 µg/mL (≈ 53.4 µM)
- MIC ([6]; culture MP/072.3489): 32 µg/mL (≈ 107 µM)
